The text below walks through data of EP0581652A1, “Pradimicins T1 and T2 and 11-0-dexylosylpradimicin T1, new members of the pradimicin family of antibiotics” (priority 1992, dated 1994).

Data set [1] has as its system Aspergillus fumigatus IAM 2034. Nature of the data set: In vitro antifungal activity, agar dilution method (MIC). In kind it is cell-based. The conditions noted are these: yeast morphology agar + 1/15M phosphate buffer (pH 7.0), 10^6 cells/ml, 28°C, 40 hrs. (In general: In agar dilution the substance is mixed into plates at graded concentrations.)
Data set [2] relates to Trichophyton mentagrophytes 4329. Described as above. In kind it is cell-based. The conditions noted are these: yeast morphology agar + 1/15M phosphate buffer (pH 7.0), 10^7 cells/ml, 28°C, 60 hrs.
Data set [3] concerns Saccharomyces cerevisiae ATCC 9763. Described as above. In kind it is cell-based. The following applies: yeast morphology agar + 1/15M phosphate buffer (pH 7.0), 10^6 cells/ml, 28°C, 40 hrs.
The subject of data set [4] is Candida albicans A9540. The description is as above. In kind it is cell-based. The following applies: yeast morphology agar + 1/15M phosphate buffer (pH 7.0), 10^6 cells/ml, 28°C, 40 hrs.
Data set [5] has as its system Candida albicans ATCC 32354 (B311). The data set is described as above. In kind it is cell-based. The conditions noted are these: yeast morphology agar + 1/15M phosphate buffer (pH 7.0), 10^6 cells/ml, 28°C, 40 hrs.
For data set [6], the system named is Candida albicans 83-2-14 (Juntendo). The description is as above. In kind it is cell-based. The following applies: yeast morphology agar + 1/15M phosphate buffer (pH 7.0), 10^6 cells/ml, 28°C, 40 hrs.
The test system of data set [7] is Cryptococcus neoformans D49. The description is as above. The conditions noted are these: yeast morphology agar + 1/15M phosphate buffer (pH 7.0), 10^6 cells/ml, 28°C, 40 hrs. In kind it is cell-based.
The test system of data set [8] is Cryptococcus neoformans IAM 4514. The data set is described as above. In kind it is cell-based. The conditions noted are these: yeast morphology agar + 1/15M phosphate buffer (pH 7.0), 10^6 cells/ml, 28°C, 40 hrs.
Data set [9] relates to Candida albicans A9540. Nature of the data set: In vivo efficacy against systemic infection in mice. The following applies: male ICR mice; C. albicans A9540 systemic infection; single intravenous dose immediately after challenge; survival rate 20 days after infection. The method, then:
(§1) Pradimicins T1 and T2 were evaluated for in vivo efficacy against a Candida albicans A9540 systemic infection in male ICR mice (20-24 g body weight) as described by Oki etal. in water-soluble pradimicin derivatives, synthesis and antifungal evaluation of N,N,-dimethyl pradimicins, J. Antibiotics 43: 1230-1235, 1990. Five mice at each dose level were challenged intravenously with ten times the 50% lethal dose of the pathogen suspended in saline. Antibiotics were intravenously administered once immediately after the fungal challenge. Infection control animals (n=10) died from 7 to 12 days. The 50% protective dose (PD50) was calculated from the survival rate 20 days after the fungal infection. The acute toxicity of pradimicins T1 and T2 was determined in mice after a single intravenous dose.

Data set [10] is described as follows: Acute toxicity in mice after a single intravenous dose. In kind it is in vivo. As to the method: as §1

“11-O-dexylosylpradimicin T1 [11-O-Dexylosyl-pradimicin T1]”: the MIC came to 25 μ g/ml in data set [1] and 12.5 μ g/ml in data set [2].
On to Amphotericin B, for which the MIC (in data set [3]; in the data set on Candida albicans A9540 [4]; in [5]; in data set [6]; in data set [7]; in [8]) was 0.4 µg/mL throughout. The MIC in data set [1] and in data set [2] was 0.8 μ g/ml each time. Also, in the data set with Candida albicans A9540 [9], the PD50 is recorded as 0.2 mg/kg. In data set [10], the LD50 is on record as 4.5 mg/kg.
On to Pradimicin T1, for which the MIC in data set [1] and in data set [2] was 6.3 μ g/ml in each case.
As for Pradimicin T2, the MIC was over 100 μ g/ml in data set [1] and 50 μ g/ml in data set [2].

Usually LD50 stands for the dose expected to kill half of the subjects tested. A high value points to lower toxicity.
